Test results reported in US20060127996A1, “Method of extraction of isothiocyanates into oil from glucosinolate-containing plants and method of producing products with oil containing isothiocyanates extracted from glucosinolate-containing plants” (Johns Hopkins University, priority 2004, published 2006).

Tests used:
[1] = Experimental: The remainder of the hydrolyzed seed mash (100 g-0.79 g) was partitioned into a total of 400 ml EtOAc, by vigorous stirring and shaking. The mixture was then allowed to settle in a large graduate cylinder, the upper 100 ml was removed and evaporated under vacuum. […] This oil was then vortexed (1 g volume per 100 ml of water), then allowed to re-equilibrate into two phases, filtered, and the aqueous phase used for HPLC determination of sulforaphane content as described above.
Remark: listed apart in the source

In the case of C[S+]([O-])CCCCN=C=S (centres unmarked) [sulforaphane, 4-methylsulfinylbutyl isothiocyanate], the solubility in oil ([1]; broccoli seed oil) is reported as “oil soluble”, the solubility in hexane ([1]; hexane) is reported as “not soluble” and the solubility in water ([1]; water, back-extraction of the oil) is reported as “reasonable solubility”. For the same molecule, the “partition in biphasic mixture of ethyl acetate and water” value (pure sulforaphane spiked into ethyl acetate/water) was “partitions to the organic fraction” and the “partition in biphasic mixture of hexane and water” value (pure sulforaphane spiked into hexane/water) was “partitions to the aqueous fraction”.
